How the values were obtained:
Type in all cases: in vivo
[1] = test system: morningglory (Ipomoea spp.); experiment: Test A preemergence, morningglory; settings: 0 to 100 scale (0 no effect, 100 complete control)
Source text: (§1) Seeds of barnyardgrass (Echinochloa crus-galli), large crabgrass (Digitaria sanguinalis), giant foxtail (Setaria faberi), morningglory (Ipomoea spp.), pigweed (Amaranthus retroflexus), velvetleaf (Abutilon theophrasti), wheat (Triticum aestivum), and corn (Zea mays) were planted into a blend of loam soil and sand and treated preemergence with a directed soil spray using test chemicals formulated in a non-phytotoxic solvent mixture which included a surfactant. At the same time these species were also treated with postemergence applications of test compounds formulated in the same manner. Plants ranged in height from two to ten cm and were in the one- to two-leaf stage for the postemergence treatment. Treated plants and untreated controls were maintained in a greenhouse for approximately ten days, after which time all treated plants were compared to untreated controls and visually evaluated for injury. Plant response ratings, summarized in Table A, are based on a 0 to 100 scale where 0 is no effect and 100 is complete control. A dash (-) response means no test result.

[2] = test system: corn (Zea mays); experiment: Test A preemergence, corn; settings: 0 to 100 scale (0 no effect, 100 complete control)
Source text: as §1

[3] = test system: morningglory (Ipomoea spp.); experiment: Test A postemergence, morningglory; settings: 0 to 100 scale (0 no effect, 100 complete control)
Source text: as §1

[4] = test system: pigweed (Amaranthus retroflexus); experiment: Test A postemergence, pigweed; settings: 0 to 100 scale (0 no effect, 100 complete control)
Source text: as §1

[5] = test system: pigweed (Amaranthus retroflexus); experiment: Test A preemergence, pigweed; settings: 0 to 100 scale (0 no effect, 100 complete control)
Source text: as §1

[6] = test system: barnyardgrass (Echinochloa crus-galli); experiment: Test A preemergence, barnyardgrass; settings: 0 to 100 scale (0 no effect, 100 complete control)
Source text: as §1

[7] = test system: giant foxtail (Setaria faberi); experiment: Test A postemergence, giant foxtail; settings: 0 to 100 scale (0 no effect, 100 complete control)
Source text: as §1

[8] = test system: corn (Zea mays); experiment: Test A postemergence, corn; settings: 0 to 100 scale (0 no effect, 100 complete control)
Source text: as §1

[9] = test system: ducksalad (Heteranthera limosa); experiment: Test B flooded paddy test, ducksalad; settings: Flood, scale 0 to 100
Source text: (§2) Plant species in the flooded paddy test consisted of rice (Oryza sativa), umbrella sedge (Cyperus difformis), ducksalad (Heteranthera limosa) and barnyardgrass (Echinochloa crus-galli) grown to the 2-leaf stage for testing. At time of treatment, test pots were flooded to 3 cm above the soil surface, treated by application of test compounds directly to the paddy water, and then maintained at that water depth for the duration of the test. Treated plants and controls were maintained in a greenhouse for 13 to 15 days, after which time all species were compared to controls and visually evaluated. Plant response ratings, summarized in Table B, are based on a scale of 0 to 100 where 0 is no effect and 100 is complete control. A dash (-) response means no test result.

[10] = test system: giant foxtail (Setaria faberi); experiment: Test A preemergence, giant foxtail; settings: 0 to 100 scale (0 no effect, 100 complete control)
Source text: as §1

[11] = test system: velvetleaf (Abutilon theophrasti); experiment: Test A preemergence, velvetleaf; settings: 0 to 100 scale (0 no effect, 100 complete control)
Source text: as §1

[12] = test system: large crabgrass (Digitaria sanguinalis); experiment: Test A postemergence, large crabgrass; settings: 0 to 100 scale (0 no effect, 100 complete control)
Source text: as §1

[13] = test system: wheat (Triticum aestivum); experiment: Test A preemergence, wheat; settings: 0 to 100 scale (0 no effect, 100 complete control)
Source text: as §1

[14] = test system: wheat (Triticum aestivum); experiment: Test A postemergence, wheat; settings: 0 to 100 scale (0 no effect, 100 complete control)
Source text: as §1

[15] = test system: large crabgrass (Digitaria sanguinalis); experiment: Test A preemergence, large crabgrass; settings: 0 to 100 scale (0 no effect, 100 complete control)
Source text: as §1

[16] = test system: barnyardgrass (Echinochloa crus-galli); experiment: Test B flooded paddy test, barnyardgrass; settings: Flood
Source text: as §2

[17] = test system: velvetleaf (Abutilon theophrasti); experiment: Test A postemergence, velvetleaf; settings: 0 to 100 scale (0 no effect, 100 complete control)
Source text: as §1

[18] = test system: rice (Oryza sativa); experiment: Test B flooded paddy test, rice; settings: Flood, scale 0 to 100
Source text: as §2

[19] = test system: umbrella sedge (Cyperus difformis); experiment: Test B flooded paddy test, umbrella sedge; settings: Flood, scale 0 to 100
Source text: as §2

[20] = test system: barnyardgrass (Echinochloa crus-galli); experiment: Test A postemergence, barnyardgrass; settings: 0 to 100 scale (0 no effect, 100 complete control)
Source text: as §1

[21] = 250 g ai/ha, scale 0 to 100 (0 no effect, 100 complete control)

SMILES: CC1(C)CC(S(=O)(=O)Cc2c(C(F)(F)F)nc3n(c2=O)CCCCC3)=NO1 [Compound 33]
- Plant response rating, Morningglory ([1]; 125 g ai/ha): 20
- Plant response rating, Morningglory ([1]; 500 g ai/ha): 50
- Plant response rating, Corn ([2]; 125 g ai/ha): 0
- Plant response rating, Corn ([2]; 500 g ai/ha): 0
- Plant response rating, Morningglory ([3]; 125 g ai/ha): 40
- Plant response rating, Morningglory ([3]; 500 g ai/ha): 60
- Plant response rating, Pigweed ([4]; 125 g ai/ha): 20
- Plant response rating, Pigweed ([4]; 500 g ai/ha): 50
- Plant response rating, Pigweed ([5]; 125 g ai/ha): 10
- Plant response rating, Pigweed ([5]; 500 g ai/ha): 100
- Plant response rating, Barnyardgrass ([6]; 125 g ai/ha): 40
- Plant response rating, Barnyardgrass ([6]; 500 g ai/ha): 90
- Plant response rating, Foxtail, Giant ([7]; 125 g ai/ha): 70
- Plant response rating, Foxtail, Giant ([7]; 500 g ai/ha): 80
- Plant response rating, Corn ([8]; 125 g ai/ha): 0
- Plant response rating, Corn ([8]; 500 g ai/ha): 0
- Plant response rating, Ducksalad ([9]; 31 g ai/ha): 0
- Plant response rating, Ducksalad ([9]; 62 g ai/ha): 0
- Plant response rating, Ducksalad ([9]; 125 g ai/ha): 20
- Plant response rating, Ducksalad ([9]; 250 g ai/ha): 50
- Plant response rating, Foxtail, Giant ([10]; 125 g ai/ha): 90
- Plant response rating, Foxtail, Giant ([10]; 500 g ai/ha): 100
- Plant response rating, Velvetleaf ([11]; 125 g ai/ha): 30
- Plant response rating, Velvetleaf ([11]; 500 g ai/ha): 60
- Plant response rating, Crabgrass, Large ([12]; 125 g ai/ha): 50
- Plant response rating, Crabgrass, Large ([12]; 500 g ai/ha): 80
- Plant response rating, Wheat ([13]; 125 g ai/ha): 0
- Plant response rating, Wheat ([13]; 500 g ai/ha): 50
- Plant response rating, Wheat ([14]; 125 g ai/ha): 0
- Plant response rating, Wheat ([14]; 500 g ai/ha): 40
- Plant response rating, Crabgrass, Large ([15]; 125 g ai/ha): 90
- Plant response rating, Crabgrass, Large ([15]; 500 g ai/ha): 100
- Plant response rating, Barnyardgrass ([16]; 31 g ai/ha, scale 0 to 100): 0
- Plant response rating, Barnyardgrass ([16]; 62 g ai/ha, scale 0 to 100): 0
- Plant response rating, Barnyardgrass ([16]; 125 g ai/ha, scale 0 to 100): 0
- Plant response rating, Barnyardgrass [16, 21]: 35
- Plant response rating, Velvetleaf ([17]; 125 g ai/ha): 0
- Plant response rating, Velvetleaf ([17]; 500 g ai/ha): 20
- Plant response rating, Rice ([18]; 31 g ai/ha): 0
- Plant response rating, Rice ([18]; 62 g ai/ha): 0
- Plant response rating, Rice ([18]; 125 g ai/ha): 0
- Plant response rating, Rice ([18]; 250 g ai/ha): 25
- Plant response rating, Sedge, Umbrella ([19]; 31 g ai/ha): 0
- Plant response rating, Sedge, Umbrella ([19]; 62 g ai/ha): 20
- Plant response rating, Sedge, Umbrella ([19]; 125 g ai/ha): 60
- Plant response rating, Sedge, Umbrella ([19]; 250 g ai/ha): 80
- Plant response rating, Barnyardgrass ([20]; 125 g ai/ha): 50
- Plant response rating, Barnyardgrass ([20]; 500 g ai/ha): 80

SMILES: CC1(C)CC([S+]([O-])Cc2c(C(F)(F)C(F)(F)F)nc3n(c2=O)CCS3)=NO1 (centres unmarked) [Compound 41]
- Plant response rating, Morningglory ([1]; 500 g ai/ha): 0
- Plant response rating, Corn ([2]; 125 g ai/ha): 0
- Plant response rating, Corn ([2]; 500 g ai/ha): 0
- Plant response rating, Morningglory ([3]; 125 g ai/ha): 0
- Plant response rating, Morningglory ([3]; 500 g ai/ha): 10
- Plant response rating, Pigweed ([4]; 125 g ai/ha): 0
- Plant response rating, Pigweed ([4]; 500 g ai/ha): 0
- Plant response rating, Pigweed ([5]; 125 g ai/ha): 0
- Plant response rating, Pigweed ([5]; 500 g ai/ha): 0
- Plant response rating, Barnyardgrass ([6]; 125 g ai/ha): 0
- Plant response rating, Barnyardgrass ([6]; 500 g ai/ha): 60
- Plant response rating, Foxtail, Giant ([7]; 125 g ai/ha): 10
- Plant response rating, Foxtail, Giant ([7]; 500 g ai/ha): 60
- Plant response rating, Corn ([8]; 125 g ai/ha): 0
- Plant response rating, Corn ([8]; 500 g ai/ha): 40
- Plant response rating, Ducksalad ([9]; 31 g ai/ha): 0
- Plant response rating, Ducksalad ([9]; 62 g ai/ha): 0
- Plant response rating, Ducksalad ([9]; 125 g ai/ha): 0
- Plant response rating, Ducksalad ([9]; 250 g ai/ha): 0
- Plant response rating, Foxtail, Giant ([10]; 125 g ai/ha): 0
- Plant response rating, Foxtail, Giant ([10]; 500 g ai/ha): 80
- Plant response rating, Velvetleaf ([11]; 125 g ai/ha): 0
- Plant response rating, Velvetleaf ([11]; 500 g ai/ha): 0
- Plant response rating, Crabgrass, Large ([12]; 125 g ai/ha): 0
- Plant response rating, Crabgrass, Large ([12]; 500 g ai/ha): 50
- Plant response rating, Wheat ([13]; 125 g ai/ha): 0
- Plant response rating, Wheat ([13]; 500 g ai/ha): 0
- Plant response rating, Wheat ([14]; 125 g ai/ha): 0
- Plant response rating, Wheat ([14]; 500 g ai/ha): 40
- Plant response rating, Crabgrass, Large ([15]; 125 g ai/ha): 0
- Plant response rating, Crabgrass, Large ([15]; 500 g ai/ha): 80
- Plant response rating, Barnyardgrass ([16]; 31 g ai/ha, scale 0 to 100): 0
- Plant response rating, Barnyardgrass ([16]; 62 g ai/ha, scale 0 to 100): 0
- Plant response rating, Barnyardgrass ([16]; 125 g ai/ha, scale 0 to 100): 0
- Plant response rating, Barnyardgrass [16, 21]: 0
- Plant response rating, Velvetleaf ([17]; 125 g ai/ha): 0
- Plant response rating, Velvetleaf ([17]; 500 g ai/ha): 0
- Plant response rating, Rice ([18]; 31 g ai/ha): 0
- Plant response rating, Rice ([18]; 62 g ai/ha): 0
- Plant response rating, Rice ([18]; 125 g ai/ha): 0
- Plant response rating, Rice ([18]; 250 g ai/ha): 0
- Plant response rating, Sedge, Umbrella ([19]; 31 g ai/ha): 0
- Plant response rating, Sedge, Umbrella ([19]; 62 g ai/ha): 0
- Plant response rating, Sedge, Umbrella ([19]; 125 g ai/ha): 0
- Plant response rating, Sedge, Umbrella ([19]; 250 g ai/ha): 0
- Plant response rating, Barnyardgrass ([20]; 125 g ai/ha): 30
- Plant response rating, Barnyardgrass ([20]; 500 g ai/ha): 70
